Measured values: US10563272B2, “Compositions comprising Metarhizium fungi and use thereof as a pesticide” (Cotton Research and Development Corporation, priority 2015, dated 2020)

Assays:
[1] = system: predatory bugs; test: Rate trial on conventional cotton, Norwood 2012 (Example 10): predatory bugs; assay type: in vivo, Hemiptera (Nabidae, Lygaeidae, Pentatomidae); settings: P>0.05
Protocol: This trial was conducted on commercial conventional cotton crops on a farm at Norwood (29° 28'S, 149° 50′E) near Moree, NSW, from 28 Feb. to 21 Mar. 2012. The cotton used for the trial was at the early squaring stage, when it was attractive to green mirids (Khan et al. 2004).
(§1) The efficacy of the following treatments against green mirids and predatory insects were evaluated: • 1. 250 mL/ha DAT 511 spore in oil (1×10^7 spores/ml); • 2. 500 mL/ha DAT 511 spore in oil (1×10^7 spores/ml); • 3. 1 L/ha DAT 511 spore in oil (1×10^7 spores/ml); • 4. 62.5 mL/ha of Fipronil; and • 5. Unsprayed (negative control).
(§2) The treatment plots were arranged in a randomized complete block design with six replicates per treatment. Each replicated plot measured 40 m wide (40 rows) and 90 m long.
Foliar application of each treatment was made on 28 Feb. (for both green mirids and beneficial insects) and 13 Mar. […]
Pre-treatment counts of adult and nymph green mirids, predatory beetles, predatory bugs, predatory lacewings and spiders were made by visual inspection of whole cotton plants. Both adults and nymphs of beneficial insects were counted. Plants were assessed in randomly selected one-metre lengths of row of each treatment replicate (i.e. 6 m per treatment). […] Data are expressed as numbers of green mirid adults and nymphs counted per metre per treatment.

[2] = Foliar spray trial on Bollgard II cotton, Norwood 2010-11 (Example 7): yield; assay type: in vivo; settings: BC 667/DAT 511 0.50 L/ha, fipronil 62.5 mL/ha
Protocol: (§3) The study evaluated the efficacy of the following treatments against green mirids, green vegetable bugs and predatory insects: • 1. 500 mL/ha BC 667 spore in oil (1×10^7 spores/ml); • 2. 500 mL/ha DAT 511 spore in oil (1×10^7 spores/ml); • 3. 62.5 mL/ha Fipronil (conventional insecticide); and • 4. Unsprayed (control).
(§4) The treatment plots were arranged in a randomized complete block design with four replicates per treatment. Each replicated plot measured 0.5 ha. Foliar application of each treatment was made on 18 Jan. 2011 using a ground spray rig fitted with flat fan nozzles to achieve a droplet size of 80 250 μm. The treatment was applied in the mornings when temperature was between 20° C. and 28° C. The timing of treatment was based on an economic threshold of 0.5 green mirids per metre, the IPM guideline and recommendation by CottonLogic.
Cotton in each treated plot was harvested separately using a four-row picker (John Deere, Model 9965, USA) at the end of the season and the average lint yields (bales/acre) were compared between treatments.

[3] = system: green mirid adults and nymphs; test: Bollgard II cotton, Auscott-Togo 2012-13, Field 63 (Experiment 2): green mirids; assay type: in vivo, Creontiades dilutus; settings: 62.5 mL/ha
Protocol: (§5) Two separate trials (Experiment 1 in Field 77; Experiment 2 in Field 63) were conducted in Bollgard II cotton crops on a commercial cotton farm at Auscott-Togo near Narrabri, New South Wales from 11 Feb. to 5 Mar. 2013 (Field 77) and 19 Feb. to 6 Mar. 2013 (Field 63). The cotton used for each of the trials was at the late squaring to pod setting and maturation stages which was fairly attractive to green mirids.
as §1, with “In both trials, the” for “The”, “was” for “were”, “fipronil;” for “Fipronil;”
as §2
(§6) Foliar application of each treatment was made on 28 Feb. (for both green mirids and beneficial insects) and 13 Mar. 2012 (for beneficial insects alone) using a ground spray rig fitted with flat fan nozzles to achieve a droplet size of 200 μm. The treatment was applied during the mornings when temperatures were between 20° C. and 28° C. The timing of treatment was based on the IPM Guidelines and recommendations by CottonLogic to use an economic threshold of 0.5 green mirids per metre (Deutscher and Wilson 1999; Khan et al. 2004).
(§7) Pre-treatment counts of green mirid adults and nymphs, predatory beetles, predatory bugs, predatory lacewings and spiders were made by visual inspection of whole cotton plants. Both adults and nymphs of beneficial insects were counted. Plants were assessed in randomly selected one-metre lengths of row of each replicate (i.e. 6 m per treatment). Post-treatment counts were made 3, 7, 14 and 21 days after treatment. Data are expressed as numbers of green mirid adults and nymphs counted per metre for each treatment.

[4] = system: lacewings; test: Foliar spray trial on Bollgard II cotton, Norwood 2010-11 (Example 7): lacewings; assay type: in vivo, Chrysopa spp., Micromus tasmaniae; settings: fipronil 62.5 mL/ha; for number of lacewings per meter: 1st spray, BC 667/DAT 511 0.50 L/ha; for number of lacewings per metre: 2nd spray, BC 667/DAT 511 0.5 L/ha
Protocol: The trial was conducted on commercial Bollgard II® cotton crops at Norwood near Moree, NSW from 5 Dec. 2010 to 19 Feb. 2011. The cotton was at the early squaring stage, when it was attractive to green mirids (Khan et al. 2004).
as §3, §4
Pre-treatment counts of green mirid adults and nymphs, predatory beetles, predatory bugs, predatory lacewings and spiders were made by visual inspection of whole cotton plants. Both adults and nymphs of the beneficial insects were counted. Plants were assessed in randomly selected one-metre lengths of row of each treatment replicate (i.e. four metres per treatment). In all, two spray applications of each treatment were made. The first spray was made on 18 Jan. 2011. Post-treatment counts of the first spray application were taken 3, 7 and 14 days after treatment (DAT) (first spray). A second spray application was done on 1 Feb. 2011 when green mirid adults plus nymphs reached the threshold of 0.5 per metre. Post-treatment counts of the second spray application were taken 3, 7, 14, 21 and 28 DAT. Data are expressed as numbers of individuals of that species counted per metre for each treatment.

[5] = system: green mirid adults and nymphs; test: Bollgard II cotton, Auscott-Togo 2012-13, Field 77 (Experiment 1): green mirids; assay type: in vivo, Creontiades dilutus; settings: 62.5 mL/ha
Protocol: as §5
as §1, with “In both trials, the” for “The”, “was” for “were”, “fipronil;” for “Fipronil;”
as §2, §6, §7

SMILES: N#Cc1nn(-c2c(Cl)cc(C(F)(F)F)cc2Cl)c(N)c1[S+]([O-])C(F)(F)F (stereo not shown) [fipronil]
- number of predatory bugs versus unsprayed (control) plots [1]: No significant difference
- Yields (bales/acre) [2]: 4.67 ± 0.63 a bales/acre
- No. green mirid adults and nymphs per meter ([3]; 3 DAT): 0.33 ± 0.33 a per meter
- No. green mirid adults and nymphs per meter ([3]; 7 DAT): 0.00 ± 0.00 a per meter
- No. green mirid adults and nymphs per meter ([3]; 14 DAT): 0.33 ± 0.33 a per meter
- No. green mirid adults and nymphs per meter ([3]; 21 DAT): 0.00 ± 0.00 a per meter
- No. green mirid adults and nymphs per meter ([3]; pre-spray counts): 1.67 ± 0.33 a per meter
- number of lacewings per meter ([4]; 3 DAT): 0.00 ± 0.00 a per meter
- number of lacewings per meter ([4]; 7 DAT): 0.00 ± 0.00 a per meter
- number of lacewings per meter ([4]; 14 DAT): 0.33 ± 0.33 a per meter
- number of lacewings per meter ([4]; pre-spray counts 18 Jan. 2011): 0.67 ± 0.33 a per meter
- number of lacewings per metre ([4]; 3 DAT): 0.33 ± 0.33a per metre
- number of lacewings per metre ([4]; 7 DAT): 0.67 ± 0.33a per metre
- number of lacewings per metre ([4]; 14 DAT): 0.67 ± 0.33a per metre
- number of lacewings per metre ([4]; 21 DAT): 1.67 ± 0.33a per metre
- number of lacewings per metre ([4]; 28 DAT): 1.33 ± 0.33a per metre
- number of lacewings per metre ([4]; pre-spray counts 1 Feb. 2011): 0.33 ± 0.33a per metre
- No. green mirid adults and nymphs per meter ([5]; 3 DAT): 1.33 ± 0.33 a per meter
- No. green mirid adults and nymphs per meter ([5]; 7 DAT): 0.00 ± 0.00 b per meter
- No. green mirid adults and nymphs per meter ([5]; 14 DAT): 0.00 ± 0.00 a per meter
- No. green mirid adults and nymphs per meter ([5]; 21 DAT): 0.00 ± 0.00 a per meter
- No. green mirid adults and nymphs per meter ([5]; pre-spray counts): 4.33 ± 0.67 a per meter
